In ChEMBL document CHEMBL5385948, “Glucose Uptake-Stimulating Metabolites from Aerial Parts of Centaurea sicula” (J Nat Prod, 2024):
Activity calls are given as the source filed them. The calls are words filed in the database; no cut-off is given here.

Columns and labels:
HEK293 [1] = test: Induction of glucose uptake in HEK293 cells assessed as increase in 2-NBDG uptake at 3 uM incubated for 48 hrs followed by treated with 2-DG in presence of EDTA by fluorescence assay; assay type: functional, cell-based; details: Homo sapiens
HEK293 [2] = test: Induction of glucose uptake in HEK293 cells assessed as increase in 2-NBDG uptake at 3 uM incubated for 48 hrs followed by treated with 2-DG by fluorescence assay; assay type: functional, cell-based; details: Homo sapiens

Row | Structure (SMILES) | Activity (HEK293 [1]) | Activity (HEK293 [2])
1 | C/C1=C\CC/C(CO)=C/[C@@H](O)[C@H]2[C@H](C1)OC(=O)[C@H]2C | inactive | Active
2 | COc1cc([C@@H]2OC[C@H]3C(=O)OC[C@H]32)ccc1O | inactive | Active
3 | C=C(C(=O)O[C@H]1C/C(C)=C/CC/C(CO)=C/[C@H]2OC(=O)[C@@H](C)[C@H]12)[C@@H](O)CO | Active | Active
4 | CC1(C)C(=O)O[C@]2(C)C=C1C[C@H](O)C2 | Active | Active
